Measurements taken from patent publication US12421254B2, “KRAS modulators and uses thereof” (Quanta Therapeutics, Inc., priority 2023, dated 2025).

Tests used:
[1] = molecular target: GST-tagged KRAS-G12V (2-169) (Homo sapiens, UniProt P01116, G12V); assay: Nucleotide exchange assay (NEA), SOS-mediated, HTRF, KRAS G12V; format: biochemical; settings: Table 4; IC50 extracted at 90 min; 80 nM SOS
Summary of the method: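 GST-KRAS-G12V (2-169), 0.25 nM, pre-incubated 1 h at RT with compound, then SOS1cat (564-1049) 80 nM and GTP-DY-647P1 150 nM added in HEPES pH 7.3 buffer with MgCl2 and DTT. HTRF via anti-GST Tb cryptate read over 90 min; IC50 from 4-parameter fit at 90 min, blanked to no-SOS reactions.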

[2] = molecular target: GST-tagged KRAS-G12D (2-169) (Homo sapiens, UniProt P01116, G12D); assay: Nucleotide exchange assay (NEA), SOS-mediated, HTRF, KRAS G12D; format: biochemical; settings: Table 4; IC50 extracted at 30 min; 20 nM SOScat; read-out: NEA G12D IC50
Summary of the method: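 Compound preincubated 1 h at RT with 0.25 nM GST-KRAS-G12D (2-169) and anti-GST Tb donor, then 20 nM SOS1cat (564-1049) and 150 nM GTP-DY-647P1 added; pH 7.3 HEPES buffer with MgCl2 and DTT. HTRF monitored at RT; % inhibition versus DMSO and no-SOS blank, 4-parameter IC50 taken at 30 min.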

Chain of GST-tagged KRAS-G12D (2-169) (P01116 2-169 isoform P01116-2 G12D): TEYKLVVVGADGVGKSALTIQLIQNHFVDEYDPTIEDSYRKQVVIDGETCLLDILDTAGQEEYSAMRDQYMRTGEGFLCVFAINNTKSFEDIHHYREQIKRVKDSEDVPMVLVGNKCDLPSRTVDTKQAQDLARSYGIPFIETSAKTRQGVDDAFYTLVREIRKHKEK
Chain of GST-tagged KRAS-G12V (2-169) (P01116 2-169 isoform P01116-2 G12V): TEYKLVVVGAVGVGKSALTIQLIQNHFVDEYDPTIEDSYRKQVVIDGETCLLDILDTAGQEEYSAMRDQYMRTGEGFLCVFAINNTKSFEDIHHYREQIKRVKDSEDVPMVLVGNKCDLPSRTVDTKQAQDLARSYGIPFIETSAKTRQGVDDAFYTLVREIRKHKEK

SMILES | IC50 [1] [nM] | IC50 [2] [nM]
N#Cc1c(N)sc2c1C1(CC2)CN(c2nc(OC[C@@]34CCCN3C[C@H](F)C4)nc(N(CCO)Cc3cc[nH]n3)n2)C1 [Compound 131, 2-amino-1′-[4-[[(2R,8S)-2-fluoro-1,2,3,5,6,7-hexahydropyrrolizin-8-yl]methoxy]-6-[2-hydroxyethyl(1H-pyrazol-5-ylmethyl)amino]-1,3,5-triazin-2-yl]spiro[5,6-dihydrocyclopenta[b]thiophene-4,3′-azetidine]-3-carbonitrile] | 10 to 100 | 100 to 1000
CN(Cc1cc(C(N)=O)nn1C)c1nc(OC[C@@]23CCCN2C[C@H](F)C3)nc(N2CC3(CCc4sc(N)c(C#N)c43)C2)n1 [Compound 135, 5-[[[4-(2-amino-3-cyano-spiro[5,6-dihydrocyclopenta[b]thiophene-4,3′-azetidine]-1′-yl)-6-[[(2R,8S)-2-fluoro-1,2,3,5,6,7-hexahydropyrrolizin-8-yl]methoxy]-1,3,5-triazin-2-yl]-methyl-amino]methyl]-1-methyl-pyrazole-3-carboxamide] | 100 to 1000 | 100 to 1000
CC(c1c[nH]nc1Cl)N(C)c1nc(OC[C@@]23CCCN2C[C@H](F)C3)nc(N2CC3(CCc4sc(N)c(C#N)c43)C2)n1 (stereo partly drawn) [Compound 140, 2-amino-1′-[4-[1-(3-chloro-1H-pyrazol-4-yl)ethyl-methyl-amino]-6-[[(2R,8S)-2-fluoro-1,2,3,5,6,7-hexahydropyrrolizin-8-yl]methoxy]-1,3,5-triazin-2-yl]spiro[5,6-dihydrocyclopenta[b]thiophene-4,3′-azetidine]-3-carbonitrile] | 100 to 1000 | 1000 to 20000
CCN(c1nc(OC[C@@]23CCCN2C[C@H](F)C3)nc(N2CC3(C2)SCc2sc(N)c(C#N)c23)n1)C(C)c1cccnc1N (stereo partly drawn) [Compound 144, 2-amino-1′-[4-[1-(2-amino-3-pyridyl)ethyl-ethyl-amino]-6-[[(2R,8S)-2-fluoro-1,2,3,5,6,7-hexahydropyrrolizin-8-yl]methoxy]-1,3,5-triazin-2-yl]spiro[6H-thieno[3,4-b]thiophene-4,3′-azetidine]-3-carbonitrile] | < 10 | < 10
CC(=O)CC(=O)N1[C@@H]2CC[C@H]1CN(c1nc(OC[C@@]34CCCN3C[C@H](F)C4)nc(N3CC4(C3)SCc3sc(N)c(C#N)c34)n1)C2 [Compound 145, 2-amino-1′-[4-[[(2R,8S)-2-fluoro-1,2,3,5,6,7-hexahydropyrrolizin-8-yl]methoxy]-6-[(1R,5S)-8-(3-oxobutanoyl)-3,8-diazabicyclo[3.2.1]octan-3-yl]-1,3,5-triazin-2-yl]spiro[6H-thieno[3,4-b]thiophene-4,3′-azetidine]-3-carbonitrile] | 100 to 1000 | 1000 to 20000
CN(Cc1cnsc1)c1nc(OC[C@@]23CCCN2C[C@H](F)C3)nc(N2CC3(CCc4sc(N)c(C#N)c43)C2)n1 [Compound 147, 2-amino-1′-[4-[[(2R,8S)-2-fluoro-1,2,3,5,6,7-hexahydropyrrolizin-8-yl]methoxy]-6-[isothiazol-4-ylmethyl(methyl)amino]-1,3,5-triazin-2-yl]spiro[5,6-dihydrocyclopenta[b]thiophene-4,3′-azetidine]-3-carbonitrile] | 10 to 100 | 100 to 1000
CC(c1nccnc1O)N(C)c1nc(OC[C@@]23CCCN2C[C@H](F)C3)nc(N2CC3(CCc4sc(N)c(C#N)c43)C2)n1 (stereo partly drawn) [Compound 150, 2-amino-1′-[4-[[(2R,8S)-2-fluoro-1,2,3,5,6,7-hexahydropyrrolizin-8-yl]methoxy]-6-[1-(3-hydroxypyrazin-2-yl)ethyl-methyl-amino]-1,3,5-triazin-2-yl]spiro[5,6-dihydrocyclopenta[b]thiophene-4,3′-azetidine]-3-carbonitrile] | 100 to 1000 | 1000 to 20000
N#Cc1c(N)sc2c1C1(CC2)CN(c2nc(OC[C@@]34CCCN3C[C@H](F)C4)nc(N(CCO)Cc3c[nH]nc3Cl)n2)C1 [Compound 151, 2-amino-1′-[4-[(3-chloro-1H-pyrazol-4-yl)methyl-(2-hydroxyethyl)amino]-6-[[(2R,8S)-2-fluoro-1,2,3,5,6,7-hexahydropyrrolizin-8-yl]methoxy]-1,3,5-triazin-2-yl]spiro[5,6-dihydrocyclopenta[b]thiophene-4,3′-azetidine]-3-carbonitrile] | 100 to 1000 | 1000 to 20000
N#Cc1c(N)sc2c1C1(CC2)CN(c2nc(OC[C@@]34CCCN3C[C@H](F)C4)nc(N(CCO)Cc3c(F)ccnc3N)n2)C1 [Compound 154, 2-amino-1′-[4-[(2-amino-4-fluoro-3-pyridyl)methyl-(2-hydroxyethyl)amino]-6-[[(2R,8S)-2-fluoro-1,2,3,5,6,7-hexahydropyrrolizin-8-yl]methoxy]-1,3,5-triazin-2-yl]spiro[5,6-dihydrocyclopenta[b]thiophene-4,3′-azetidine]-3-carbonitrile] | < 10 | 10 to 100
CC(c1cncnc1O)N(C)c1nc(OC[C@@]23CCCN2C[C@H](F)C3)nc(N2CC3(CCc4sc(N)c(C#N)c43)C2)n1 (stereo partly drawn) [Compound 155, 2-amino-1′-[4-[[(2R,8S)-2-fluoro-1,2,3,5,6,7-hexahydropyrrolizin-8-yl]methoxy]-6-[1-(4-hydroxypyrimidin-5-yl)ethyl-methyl-amino]-1,3,5-triazin-2-yl]spiro[5,6-dihydrocyclopenta[b]thiophene-4,3′-azetidine]-3-carbonitrile] | 1000 to 20000 | 1000 to 20000
CO/N=C(\C(C)=O)C(=O)N1[C@@H]2CC[C@H]1CN(c1nc(OC[C@@]34CCCN3C[C@H](F)C4)nc(N3CC4(C3)SCc3sc(N)c(C#N)c34)n1)C2 [Compound 161, 2-amino-1′-[4-[[(2R,8S)-2-fluoro-1,2,3,5,6,7-hexahydropyrrolizin-8-yl]methoxy]-6-[(1R,5S)-8-[(2Z)-2-methoxyimino-3-oxo-butanoyl]-3,8-diazabicyclo[3.2.1]octan-3-yl]-1,3,5-triazin-2-yl]spiro[6H-thieno[3,4-b]thiophene-4,3′-azetidine]-3-carbonitrile] | 100 to 1000 | 1000 to 20000
N#Cc1c(N)sc2c1C1(CN(c3nc(OC[C@@]45CCCN4C[C@H](F)C5)nc(Oc4cn[nH]c4)n3)C1)SC2 [Compound 164, 2-amino-1′-[4-[[(2R,8S)-2-fluoro-1,2,3,5,6,7-hexahydropyrrolizin-8-yl]methoxy]-6-(1H-pyrazol-4-yloxy)-1,3,5-triazin-2-yl]spiro[6H-thieno[3,4-b]thiophene-4,3′-azetidine]-3-carbonitrile] | 10 to 100 | 100 to 1000
N#Cc1c(N)sc2c1C1(CN(c3nc(OC[C@@]45CCCN4C[C@H](F)C5)nc(Oc4cc[nH]n4)n3)C1)SC2 [Compound 165, 2-amino-1′-[4-[[(2R,8S)-2-fluoro-1,2,3,5,6,7-hexahydropyrrolizin-8-yl]methoxy]-6-(1H-pyrazol-3-yloxy)-1,3,5-triazin-2-yl]spiro[6H-thieno[3,4-b]thiophene-4,3′-azetidine]-3-carbonitrile] | 100 to 1000 | 1000 to 20000
C[C@H](c1cccnc1N)N(C)c1nc(OCC2(N(C)C)CC2)nc(N2CC3(C2)SCc2sc(N)c(C#N)c23)n1 [Compound 181, 2-amino-1′-[4-[[(1R)-1-(2-amino-3-pyridyl)ethyl]-methyl-amino]-6-[[1-(dimethylamino)cyclopropyl]methoxy]-1,3,5-triazin-2-yl]spiro[6H-thieno[2,3-c]thiophene-4,3′-azetidine]-3-carbonitrile] | 10 to 100 | 100 to 1000
CN(Cc1c(O)ccnc1N)c1nc(OC[C@@]23CCCN2C[C@H](F)C3)nc(N2CC3(C2)SCc2sc(N)c(C#N)c23)n1 [Compound 182, 2-amino-1′-[4-[(2-amino-4-hydroxy-3-pyridyl)methyl-methyl-amino]-6-[[(2R,8S)-2-fluoro-1,2,3,5,6,7-hexahydropyrrolizin-8-yl]methoxy]-1,3,5-triazin-2-yl]spiro[6H-thieno[2,3-c]thiophene-4,3′-azetidine]-3-carbonitrile] | 10 to 100 | 10 to 100
N#Cc1c(N)sc2c1C1(CN(c3nc(OCC4(CN5CCOCC5)CC4)nc(N4CCNC[C@@H]4CO)n3)C1)SC2 [Compound 185, (R)-2′-amino-1-(4-(2-(hydroxymethyl)piperazin-1-yl)-6-((1-(morpholinomethyl)cyclopropyl)methoxy)-1,3,5-triazin-2-yl)-6′H-spiro[azetidine-3,4′-thieno[3,4-b]thiophene]-3′-carbonitrile] | 100 to 1000 | < 10
N#Cc1c(N)sc2c1C1(CN(c3nc(OCC4(CN5CCOCC5)CC4)nc(N4CCNC[C@H]4CO)n3)C1)SC2 [Compound 186, (S)-2′-amino-1-(4-(2-(hydroxymethyl)piperazin-1-yl)-6-((1-(morpholinomethyl)cyclopropyl)methoxy)-1,3,5-triazin-2-yl)-6′H-spiro[azetidine-3,4′-thieno[3,4-b]thiophene]-3′-carbonitrile] | 10 to 100 | < 10
N#Cc1c(N)sc2c1C1(CN(c3nc(OC[C@@]45CCCN4C[C@H](F)C5)nc(N(CC(=O)O)Cc4cccnc4N)n3)C1)SC2 [Compound 187, 2-[[4-(2-amino-3-cyano-spiro[6H-thieno[3,4-b]thiophene-4,3′-azetidine]-1′-yl)-6-[[(2R,8S)-2-fluoro-1,2,3,5,6,7-hexahydropyrrolizin-8-yl]methoxy]-1,3,5-triazin-2-yl]-[(2-amino-3-pyridyl)methyl]amino]acetic acid] | < 10 | 10 to 100
